Structures are written as SMILES. Numbers after ± are expanded uncertainties.

One data set can be described thus: activity coefficient (dimensionless); of the first substance listed, at infinite dilution; xn = mol fraction of the nth substance listed. As to conditions: 338.15 K; 101 kPa; Liquid; Chromatography; x1 = 0.
As to `C1CCCCCC1` [cycloheptane] + CCCCCC[n+]1ccc2ccccc2c1.N#C[S-], the activity coefficient worked out at 13.4 ± 0.9.
Take `C1CCCCC1` [cyclohexane] + CCCCCC[n+]1ccc2ccccc2c1.N#C[S-]: the activity coefficient is 12.4 ± 0.8.
`C1=CCCCC1` [cyclohexene] + CCCCCC[n+]1ccc2ccccc2c1.N#C[S-]: the activity coefficient was 6.2 ± 0.42.

Staying with this data set, now noted: 348.15 K; 101 kPa; Liquid; Chromatography; x1 = 0.
Turning to `Cc1ccccc1C` [1,2-dimethylbenzene] + CCCCCC[n+]1ccc2ccccc2c1.N#C[S-], the activity coefficient worked out at 2.41 ± 0.16.
Regarding `Cc1cccc(C)c1` [1,3-dimethylbenzene] + CCCCCC[n+]1ccc2ccccc2c1.N#C[S-], the activity coefficient stood at 2.96 ± 0.2.
With `Cc1ccc(C)cc1` [1,4-dimethylbenzene] + CCCCCC[n+]1ccc2ccccc2c1.N#C[S-], the activity coefficient came to 2.88 ± 0.2.
`C1COCCO1` [1,4-dioxane] + CCCCCC[n+]1ccc2ccccc2c1.N#C[S-]: the activity coefficient worked out at 1.27 ± 0.08.
Take `C=CCCCCCCCC` [1-decene] + CCCCCC[n+]1ccc2ccccc2c1.N#C[S-]: the activity coefficient came to 42.5 ± 2.9.
`C=CCCCCC` [1-heptene] + CCCCCC[n+]1ccc2ccccc2c1.N#C[S-]: the activity coefficient amounted to 18.7 ± 1.3.
On the same count and under the same terms, the figure for `C#CCCCCC` [1-heptyne] + CCCCCC[n+]1ccc2ccccc2c1.N#C[S-] is 5.09 ± 0.35; for `C#CCCCC` [1-hexyne] + CCCCCC[n+]1ccc2ccccc2c1.N#C[S-] it is 3.83 ± 0.26.
Consider `CCC[N+](=O)[O-]` [1-nitropropane] + CCCCCC[n+]1ccc2ccccc2c1.N#C[S-], for which the activity coefficient stood at 1.37 ± 0.09.
On the same count and under the same terms, the figure for `C#CCCCCCC` [1-octyne] + CCCCCC[n+]1ccc2ccccc2c1.N#C[S-] is 6.71 ± 0.46; for `C=CCCC` [1-pentene] + CCCCCC[n+]1ccc2ccccc2c1.N#C[S-] it is 11.7 ± 0.8; for `C#CCCC` [1-pentyne] + CCCCCC[n+]1ccc2ccccc2c1.N#C[S-] it is 3.03 ± 0.21.
The same measure, in the same setting: the figure for `CC(C)CC(C)(C)C` [2,2,4-trimethylpentane] + CCCCCC[n+]1ccc2ccccc2c1.N#C[S-] is 50.8 ± 3.5; for `CCC(C)(C)C` [2,2-dimethylbutane] + CCCCCC[n+]1ccc2ccccc2c1.N#C[S-] it is 37.9 ± 2.6; for `CCOC(C)(C)C` [2-ethoxy-2-methylpropane] + CCCCCC[n+]1ccc2ccccc2c1.N#C[S-] it is 14.7 ± 1.
As to `CCCCC(C)=O` [2-hexanone] + CCCCCC[n+]1ccc2ccccc2c1.N#C[S-], the activity coefficient is 2.64 ± 0.18.
For the compound `CCC(C)(C)OC` [2-methoxy-2-methylbutane] + CCCCCC[n+]1ccc2ccccc2c1.N#C[S-], the activity coefficient is 8.36 ± 0.57.
For `COC(C)(C)C` [2-methoxy-2-methylpropane] + CCCCCC[n+]1ccc2ccccc2c1.N#C[S-], the activity coefficient was determined as 6.99 ± 0.48.
As to `CCCC(=O)CC` [3-hexanone] + CCCCCC[n+]1ccc2ccccc2c1.N#C[S-], the activity coefficient came out at 2.89 ± 0.2.
In the case of `CCC(C)CC` [3-methylpentane] + CCCCCC[n+]1ccc2ccccc2c1.N#C[S-], the activity coefficient was found to be 27.9 ± 1.9.
Take `CC(C)=O` [acetone] + CCCCCC[n+]1ccc2ccccc2c1.N#C[S-]: the activity coefficient worked out at 1.3 ± 0.08.
As to `CC#N` [acetonitrile] + CCCCCC[n+]1ccc2ccccc2c1.N#C[S-], the activity coefficient was 1 ± 0.06.
Turning to `c1ccccc1` [benzene] + CCCCCC[n+]1ccc2ccccc2c1.N#C[S-], the activity coefficient was determined as 1.48 ± 0.1.
Consider `CCCCO` [butan-1-ol] + CCCCCC[n+]1ccc2ccccc2c1.N#C[S-], for which the activity coefficient came out at 0.812 ± 0.053.
The same measure, in the same setting: the figure for `C1CCCCCC1` [cycloheptane] + CCCCCC[n+]1ccc2ccccc2c1.N#C[S-] is 12.6 ± 0.9.
As for `C1CCCCC1` [cyclohexane] + CCCCCC[n+]1ccc2ccccc2c1.N#C[S-], the activity coefficient was 11.6 ± 0.8.
Regarding `C1=CCCCC1` [cyclohexene] + CCCCCC[n+]1ccc2ccccc2c1.N#C[S-], the activity coefficient is 5.9 ± 0.4.

Still in this data set, the particulars now being: 358.15 K; 101 kPa; Liquid; Chromatography; x1 = 0.
Turning to `Cc1ccccc1C` [1,2-dimethylbenzene] + CCCCCC[n+]1ccc2ccccc2c1.N#C[S-], the activity coefficient stood at 2.43 ± 0.17.
For the compound `Cc1cccc(C)c1` [1,3-dimethylbenzene] + CCCCCC[n+]1ccc2ccccc2c1.N#C[S-], the activity coefficient came to 2.98 ± 0.2.
On the same count and under the same terms, the figure for `Cc1ccc(C)cc1` [1,4-dimethylbenzene] + CCCCCC[n+]1ccc2ccccc2c1.N#C[S-] is 2.9 ± 0.2; for `C1COCCO1` [1,4-dioxane] + CCCCCC[n+]1ccc2ccccc2c1.N#C[S-] it is 1.28 ± 0.08.
`C=CCCCCCCCC` [1-decene] + CCCCCC[n+]1ccc2ccccc2c1.N#C[S-]: the activity coefficient stood at 40.5 ± 2.8.
For the compound `C=CCCCCC` [1-heptene] + CCCCCC[n+]1ccc2ccccc2c1.N#C[S-], the activity coefficient stood at 17.7 ± 1.2.
Still for that read-out and setting: the figure for `C#CCCCCC` [1-heptyne] + CCCCCC[n+]1ccc2ccccc2c1.N#C[S-] is 5.16 ± 0.35.
For `C#CCCCC` [1-hexyne] + CCCCCC[n+]1ccc2ccccc2c1.N#C[S-], the activity coefficient is 3.9 ± 0.27.
Turning to `CCC[N+](=O)[O-]` [1-nitropropane] + CCCCCC[n+]1ccc2ccccc2c1.N#C[S-], the activity coefficient was 1.37 ± 0.09.
For `C#CCCCCCC` [1-octyne] + CCCCCC[n+]1ccc2ccccc2c1.N#C[S-], the activity coefficient worked out at 6.8 ± 0.46.
Same read-out and setting: the figure for `C=CCCC` [1-pentene] + CCCCCC[n+]1ccc2ccccc2c1.N#C[S-] is 10.7 ± 0.7; for `C#CCCC` [1-pentyne] + CCCCCC[n+]1ccc2ccccc2c1.N#C[S-] it is 3.07 ± 0.21.
With `CC(C)CC(C)(C)C` [2,2,4-trimethylpentane] + CCCCCC[n+]1ccc2ccccc2c1.N#C[S-], the activity coefficient amounted to 44.5 ± 3.
Regarding `CCC(C)(C)C` [2,2-dimethylbutane] + CCCCCC[n+]1ccc2ccccc2c1.N#C[S-], the activity coefficient was 31.2 ± 2.1.
Consider `CCOC(C)(C)C` [2-ethoxy-2-methylpropane] + CCCCCC[n+]1ccc2ccccc2c1.N#C[S-], for which the activity coefficient is 13.8 ± 0.9.
Regarding `CCCCC(C)=O` [2-hexanone] + CCCCCC[n+]1ccc2ccccc2c1.N#C[S-], the activity coefficient amounted to 2.65 ± 0.18.
On to `CCC(C)(C)OC` [2-methoxy-2-methylbutane] + CCCCCC[n+]1ccc2ccccc2c1.N#C[S-], for which the activity coefficient was 8.13 ± 0.55.
As to `COC(C)(C)C` [2-methoxy-2-methylpropane] + CCCCCC[n+]1ccc2ccccc2c1.N#C[S-], the activity coefficient came to 6.61 ± 0.45.
Same read-out and setting: the figure for `CCCC(=O)CC` [3-hexanone] + CCCCCC[n+]1ccc2ccccc2c1.N#C[S-] is 2.9 ± 0.2; for `CCC(C)CC` [3-methylpentane] + CCCCCC[n+]1ccc2ccccc2c1.N#C[S-] it is 24.7 ± 1.7.
In the case of `CC(C)=O` [acetone] + CCCCCC[n+]1ccc2ccccc2c1.N#C[S-], the activity coefficient was 1.3 ± 0.08.
In the case of `CC#N` [acetonitrile] + CCCCCC[n+]1ccc2ccccc2c1.N#C[S-], the activity coefficient amounted to 0.994 ± 0.062.
As to `c1ccccc1` [benzene] + CCCCCC[n+]1ccc2ccccc2c1.N#C[S-], the activity coefficient worked out at 1.48 ± 0.1.
In the case of `CCCCO` [butan-1-ol] + CCCCCC[n+]1ccc2ccccc2c1.N#C[S-], the activity coefficient is 0.802 ± 0.052.
Turning to `C1CCCCCC1` [cycloheptane] + CCCCCC[n+]1ccc2ccccc2c1.N#C[S-], the activity coefficient was found to be 11.9 ± 0.8.
Regarding `C1CCCCC1` [cyclohexane] + CCCCCC[n+]1ccc2ccccc2c1.N#C[S-], the activity coefficient stood at 10.8 ± 0.7.
The same measure, in the same setting: the figure for `C1=CCCCC1` [cyclohexene] + CCCCCC[n+]1ccc2ccccc2c1.N#C[S-] is 5.7 ± 0.39.

The same data set, now with this note: 368.15 K; 101 kPa; Liquid; Chromatography; x1 = 0.
On to `Cc1ccccc1C` [1,2-dimethylbenzene] + CCCCCC[n+]1ccc2ccccc2c1.N#C[S-], for which the activity coefficient was 2.45 ± 0.17.
As to `Cc1cccc(C)c1` [1,3-dimethylbenzene] + CCCCCC[n+]1ccc2ccccc2c1.N#C[S-], the activity coefficient worked out at 3.01 ± 0.2.
On to `Cc1ccc(C)cc1` [1,4-dimethylbenzene] + CCCCCC[n+]1ccc2ccccc2c1.N#C[S-], for which the activity coefficient is 2.94 ± 0.2.
Take `C1COCCO1` [1,4-dioxane] + CCCCCC[n+]1ccc2ccccc2c1.N#C[S-]: the activity coefficient was determined as 1.31 ± 0.09.
Consider `C=CCCCCCCCC` [1-decene] + CCCCCC[n+]1ccc2ccccc2c1.N#C[S-], for which the activity coefficient was 39.1 ± 2.7.
Turning to `C=CCCCCC` [1-heptene] + CCCCCC[n+]1ccc2ccccc2c1.N#C[S-], the activity coefficient worked out at 16.9 ± 1.2.
On the same count and under the same terms, the figure for `C#CCCCCC` [1-heptyne] + CCCCCC[n+]1ccc2ccccc2c1.N#C[S-] is 5.21 ± 0.36; for `C#CCCCC` [1-hexyne] + CCCCCC[n+]1ccc2ccccc2c1.N#C[S-] it is 3.96 ± 0.27; for `CCC[N+](=O)[O-]` [1-nitropropane] + CCCCCC[n+]1ccc2ccccc2c1.N#C[S-] it is 1.35 ± 0.09.
On to `C#CCCCCCC` [1-octyne] + CCCCCC[n+]1ccc2ccccc2c1.N#C[S-], for which the activity coefficient came to 6.87 ± 0.47.
With `C=CCCC` [1-pentene] + CCCCCC[n+]1ccc2ccccc2c1.N#C[S-], the activity coefficient was determined as 9.6 ± 0.7.
With `C#CCCC` [1-pentyne] + CCCCCC[n+]1ccc2ccccc2c1.N#C[S-], the activity coefficient is 3.14 ± 0.21.
Regarding `CC(C)CC(C)(C)C` [2,2,4-trimethylpentane] + CCCCCC[n+]1ccc2ccccc2c1.N#C[S-], the activity coefficient amounted to 39.1 ± 2.7.
The same measure, in the same setting: the figure for `CCC(C)(C)C` [2,2-dimethylbutane] + CCCCCC[n+]1ccc2ccccc2c1.N#C[S-] is 25.6 ± 1.8.
As for `CCOC(C)(C)C` [2-ethoxy-2-methylpropane] + CCCCCC[n+]1ccc2ccccc2c1.N#C[S-], the activity coefficient worked out at 12.8 ± 0.9.
As for `CCCCC(C)=O` [2-hexanone] + CCCCCC[n+]1ccc2ccccc2c1.N#C[S-], the activity coefficient is 2.65 ± 0.18.
Take `CCC(C)(C)OC` [2-methoxy-2-methylbutane] + CCCCCC[n+]1ccc2ccccc2c1.N#C[S-]: the activity coefficient is 7.85 ± 0.54.
Still for that read-out and setting: the figure for `COC(C)(C)C` [2-methoxy-2-methylpropane] + CCCCCC[n+]1ccc2ccccc2c1.N#C[S-] is 6.28 ± 0.43.
On the same count and under the same terms, the figure for `CCCC(=O)CC` [3-hexanone] + CCCCCC[n+]1ccc2ccccc2c1.N#C[S-] is 2.91 ± 0.2.
Take `CCC(C)CC` [3-methylpentane] + CCCCCC[n+]1ccc2ccccc2c1.N#C[S-]: the activity coefficient turned out to be 21.5 ± 1.5.
For the compound `CC(C)=O` [acetone] + CCCCCC[n+]1ccc2ccccc2c1.N#C[S-], the activity coefficient was found to be 1.28 ± 0.08.
Take `CC#N` [acetonitrile] + CCCCCC[n+]1ccc2ccccc2c1.N#C[S-]: the activity coefficient turned out to be 0.982 ± 0.062.
Consider `c1ccccc1` [benzene] + CCCCCC[n+]1ccc2ccccc2c1.N#C[S-], for which the activity coefficient came to 1.49 ± 0.1.
Regarding `CCCCO` [butan-1-ol] + CCCCCC[n+]1ccc2ccccc2c1.N#C[S-], the activity coefficient is 0.788 ± 0.051.
Take `C1CCCCCC1` [cycloheptane] + CCCCCC[n+]1ccc2ccccc2c1.N#C[S-]: the activity coefficient amounted to 11.3 ± 0.8.
With `C1CCCCC1` [cyclohexane] + CCCCCC[n+]1ccc2ccccc2c1.N#C[S-], the activity coefficient amounted to 10.2 ± 0.7.
Take `C1=CCCCC1` [cyclohexene] + CCCCCC[n+]1ccc2ccccc2c1.N#C[S-]: the activity coefficient was 5.5 ± 0.37.

Values taken from the NIST ThermoML archive (doi:10.1016/j.jct.2013.02.004).
